The text below walks through data of US8110681B2, “Compounds for the treatment of spinal muscular atrophy and other uses” (The United States of America as represented by the …, priority 2006, dated 2012).

For the test, the system named is SMN2-linked luciferase-reporter gene construct. The experiment in a line: SMN splice reporter assay (SMN2-linked luciferase reporter, Example 10). The following applies: average; for EC50: SMN2-linked luciferase reporter; for maximal fold induction: maximum fold increase of reporter signal, read-out: SMN Splice Reporter Assay (Example 10) Avg MaxFold Increase. The format is cell-based. An excerpt:
Cervical carcinoma cell lines were transformed with a SMN2-linked luciferase-reporter gene construct. The reporter is designed to detect shifts in the alternative splicing of SMN2 sequences. In particular, the reporter is constructed as a fusion of the alternatively spliced sequences of the SMN2 gene and the luciferase gene. Luciferase sequences are in the correct translational reading frame only when the SMN2 sequences are spliced according to the normal SMN1 mechanism (e.g., splicing to include exon 7), which allows for translation of the stable SMN protein. Compounds were tested in the assay by administering the compound to the cell line and detecting an increase in the luciferase activity. The assay is described in greater detail in Zhang et al., Gene Ther., 8, 1532-8 (2001). Compounds were administered as described in Lunn et al, Chem. & Biol, 11, 1489-1493 (2004).
The results are reported as a fold-increase over a baseline reading of transformed cells without any test compound.
(Reporter assays use an easily measured gene product as a stand-in for the process of interest.)

In the case of `CC(C(=O)OC(C)(C)C)c1ccc(N2Cc3cc(Cl)ccc3C2=O)cc1` (centres unmarked) [ALB-111761], the EC50 – broadly, the concentration needed to bring the measured effect to its halfway point – came to 5.56 µM and the maximal fold induction was 1.19. Turning to `CC(C(=O)O)c1ccc(N2Cc3ccc(N)cc3C2=O)cc1` (centres unmarked) [ALB-111883a], the EC50 was determined as 1.26 µM and the maximal fold induction came to 1.17. For the compound `CC(C(=O)OC(C)(C)C)c1ccc(N2Cc3c(cccc3-c3ccc(Cl)cc3)C2=O)cc1` (centres unmarked) [ALB-112190], the maximal fold induction came to 1.1. As for `COc1ccc(-c2cccc3c2C(=O)N(c2ccc(C(C)C(=O)OC(C)(C)C)cc2)C3)cc1` (centres unmarked) [ALB-112152], the maximal fold induction was 1.04. The same measure, in the same setting: next, `CCOc1ccc2c(c1)CN(c1ccc(C(C)C)cc1)C2=O` [ALB-118276]: 1.05. Consider `CC(C)Oc1cccc2c1C(=O)N(c1ccc(C(C)C(=O)O)cc1)C2` (centres unmarked) [ALB-113392], for which the EC50 stood at 4.86 µM and the maximal fold induction came to 1.65. On to `CC(C(=O)OC(C)(C)C)c1ccc(N2Cc3ccccc3C2=O)cc1-c1ccc(Cl)cc1` (centres unmarked) [ALB-112328], for which the maximal fold induction came to 1.04. For the compound `CC(C)c1ccc2c(c1)C(=O)N(c1ccc(C(C)C(=O)O)cc1)C2` (centres unmarked) [ALB-113563], the EC50 stood at 0.055 µM and the maximal fold induction is 1.8. The corresponding values for `CC(C)NC(=O)C(C)c1ccc(N2Cc3ccccc3C2=O)cc1` (centres unmarked) [ALB-112076] are 1.37 µM and 1.12.

Consider `COCc1ccc(N2Cc3ccc(OC)cc3C2=O)cc1` [ALB-116067], for which the maximal fold induction was 1.24.

Consider `CC(C(=O)OC(C)(C)C)c1ccc(N2Cc3cccc(-c4ccccc4)c3C2=O)cc1` (centres unmarked) [ALB-112150], for which the maximal fold induction came out at 1.1. As to `C[C@H](C(=O)O)c1ccc(N2Cc3ccccc3C2=O)cc1` [ALB-112837], the response was half-maximal at 8.54 µM (EC50) and the maximal fold induction is 1.4. For `CC(C)c1ccc(N2Cc3cc(N(C)C)ccc3C2=O)cc1` [ALB-117752], the EC50 worked out at 0.042 µM and the maximal fold induction stood at 1.38. In the case of `CC(C(=O)OC(C)(C)C)c1ccc(N2Cc3ccccc3C2=O)cc1-c1cccnc1` (centres unmarked) [ALB-112173], the maximal fold induction is 1. With `CC(C(=O)O)c1ccc(N2CC3=C(CC=CC3)C2=O)cc1` (centres unmarked) [ALB-112896], the EC50 was determined as 1.01 µM and the maximal fold induction came out at 1.58.

As for `CC(C(=O)OC(C)(C)C)c1ccc(N2Cc3ccccc3C2=O)c(Br)c1` (centres unmarked) [ALB-111998], the maximal fold induction stood at 1.04. With `CC(C(=O)OC(C)(C)C)c1ccc(N2Cc3ccccc3C2=O)c(C#N)c1` (centres unmarked) [ALB-112436], the maximal fold induction came out at 1.07.

On to `CCCCc1cccc2c1C(=O)N(c1ccc(C(C)C(=O)O)cc1)C2` (centres unmarked) [ALB-113757], for which the maximal fold induction came to 1.18. With `CCc1ccc2c(c1)C(=O)N(c1ccc(C(C)C(=O)O)cc1)C2` (centres unmarked) [ALB-113212], a half-maximal response (EC50) required 0.103 µM and the maximal fold induction is 1.87. As for `CCOc1ccc2c(c1)C(=O)N(c1ccc(C(C)C(=O)OC(C)(C)C)cc1)C2` (centres unmarked) [ALB-113101], it took 0.242 µM to reach a half-maximal effect (EC50) and the maximal fold induction came to 1.38. For the compound `COCC(C)c1ccc(N2Cc3ccc(C4CCCC4)cc3C2=O)cc1` (centres unmarked) [ALB-114845], the maximal fold induction is 1.15. For `CC(C)c1ccc(N2Cc3ccc(N)cc3C2=O)cc1` [ALB-115805], the EC50 came to 0.099 µM and the maximal fold induction came to 1.42. In the same order, the values of `CCOC(=O)C(C)c1ccc(N2Cc3ccccc3C2=O)cc1` (centres unmarked) [ALB-111732] are 0.325 µM and 1.41. The corresponding values for `C=Cc1ccc2c(c1)CN(c1ccc(C(C)C(=O)OC(C)(C)C)cc1)C2=O` (centres unmarked) [ALB-113100] are 0.101 µM and 1.05.

As for `CC(C)(C)c1ccc(N2Cc3ccc(Br)cc3C2=O)cc1` [ALB-115583], the EC50 came to 0.184 µM and the maximal fold induction amounted to 1.37.

Consider `COCc1ccc(N2Cc3ccccc3C2=O)cc1` [ALB-115323], for which the maximal fold induction stood at 1.1.

Take `CNC(=O)C(C)c1ccc(N2Cc3ccccc3C2=O)cc1` (centres unmarked) [ALB-112079]: the maximal fold induction worked out at 1.14.
